Values quoted from earlier work, collected in patent US20140275235A1, “Treatment of Proliferative Disorders” (priority 2013, published 2014).

Settings: literature refs 11, 12

## C[S+]([O-])CCCCN=C=S (centres unmarked) [SFN, sulforaphane]
  Bioavailability: 80%
  Time to peak plasma levels: ≤ 2 h
